# Experimental data reported in ChEMBL document CHEMBL5154903 (J Med Chem, 2022).
# Active and inactive are the calls of the source. No cut-off for these calls is given here.
# Tests used:
# [1] = biological target: T1, Thyroid hormone receptor beta (Homo sapiens, UniProt P10828); assay: Agonist activity at human TR beta LBD (202 to 461 residues) expressed in Escherichia coli BL21 (DE3) cells assessed as induction of N-terminal biotinylated coactivator SRC2-3 peptide recruitment by alphascreen assay
# T1 sequence (P10828 whole entry): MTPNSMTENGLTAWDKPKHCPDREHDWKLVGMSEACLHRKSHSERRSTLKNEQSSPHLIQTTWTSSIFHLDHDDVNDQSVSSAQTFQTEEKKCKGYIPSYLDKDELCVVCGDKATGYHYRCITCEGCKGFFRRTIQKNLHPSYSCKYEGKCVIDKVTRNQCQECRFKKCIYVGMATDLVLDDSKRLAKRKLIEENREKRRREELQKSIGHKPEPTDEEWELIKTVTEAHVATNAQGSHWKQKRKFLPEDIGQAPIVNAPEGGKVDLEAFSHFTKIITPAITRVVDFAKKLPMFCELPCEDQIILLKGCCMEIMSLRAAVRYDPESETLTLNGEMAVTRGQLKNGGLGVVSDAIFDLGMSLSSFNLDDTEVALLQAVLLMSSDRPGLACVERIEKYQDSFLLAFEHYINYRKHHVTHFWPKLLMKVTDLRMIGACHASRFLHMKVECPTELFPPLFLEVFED
# HepG2 = assay: Inhibition of lipid metabolism in human HepG2 assessed as reduction in intracellular tryglyceride level at 1 to 10 uM incubated for 24 hrs; assay type: functional, cell-based; conditions: dose 1-10 µM
# [2] = Cmax in overnight fasted Sprague-Dawley rat at 5 mg/kg, iv measured upto 24 hrs; assay type: ADME, organism-based; design: time < 24 hrs, dose 5 mg/kg, route iv; conditions: in vivo
# [3] = Microsomal stability in rat liver microsomes assessed as intrinsic clearance at 1 uM incubated for 60 mins by HPLC-MS/MS analysis; assay type: ADME, Microsome; conditions: read-out: CLH
# hERG = hERG (Homo sapiens, UniProt Q12809); assay: Inhibition of hERG expressed in HEK293 cells at 10 uM by patch-clamp assay relative to control; assay type: toxicity, cell-based; conditions: HEK293 cells expressing hERG
# HFL1 = assay: Cytotoxicity against human HFL1 cells assessed as reduction in cell viability at 10 uM incubated for 72 to 96 hrs by Celltiter-Glo assay; assay type: toxicity, cell-based; conditions: hfl1, 10 µM, time 72-96 hrs
# A549 = assay: Cytotoxicity against human A549 cells assessed as reduction in cell viability at 10 uM incubated for 72 to 96 hrs by Celltiter-Glo assay; assay type: toxicity, cell-based; conditions: a549, 10 µM, time 72-96 hrs
# CYP2C19 = CYP2C19 (Homo sapiens, UniProt P33261); assay: Inhibition of CYP2C19 in human liver microsomes at 10 uM incubated for 45 mins by LC-MS/MS analysis relative to control; assay type: ADME, Microsome
# [4] = AUC (0 to infinity) in overnight fasted Sprague-Dawley rat at 5 mg/kg, po measured upto 24 hrs; assay type: ADME, organism-based; design: dose 5 mg/kg, time < 24 hrs, route po; conditions: in vivo
# [5] = Microsomal stability in rat liver microsomes assessed as half life at 1 uM incubated for 60 mins by HPLC-MS/MS analysis; assay type: ADME, Microsome
# CYP2C9 = CYP2C9 (Homo sapiens, UniProt P11712); assay: Inhibition of CYP2C9 in human liver microsomes at 10 uM incubated for 10 mins by LC-MS/MS analysis relative to control; assay type: ADME, Microsome
# Chain of CYP2C9 (P11712 whole entry): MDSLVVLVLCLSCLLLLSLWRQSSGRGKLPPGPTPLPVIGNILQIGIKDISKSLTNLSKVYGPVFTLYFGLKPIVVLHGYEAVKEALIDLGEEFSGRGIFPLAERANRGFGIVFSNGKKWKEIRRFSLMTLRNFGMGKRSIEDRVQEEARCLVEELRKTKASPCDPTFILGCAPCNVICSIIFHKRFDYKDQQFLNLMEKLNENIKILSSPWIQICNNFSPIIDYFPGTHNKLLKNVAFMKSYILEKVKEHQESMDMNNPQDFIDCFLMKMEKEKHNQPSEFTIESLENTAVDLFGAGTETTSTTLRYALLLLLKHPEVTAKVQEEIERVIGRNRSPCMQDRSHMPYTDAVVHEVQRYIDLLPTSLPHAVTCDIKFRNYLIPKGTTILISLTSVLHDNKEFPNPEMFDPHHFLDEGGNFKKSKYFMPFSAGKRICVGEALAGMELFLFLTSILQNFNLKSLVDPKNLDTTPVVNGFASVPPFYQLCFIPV
# Chain of hERG (Q12809 whole entry): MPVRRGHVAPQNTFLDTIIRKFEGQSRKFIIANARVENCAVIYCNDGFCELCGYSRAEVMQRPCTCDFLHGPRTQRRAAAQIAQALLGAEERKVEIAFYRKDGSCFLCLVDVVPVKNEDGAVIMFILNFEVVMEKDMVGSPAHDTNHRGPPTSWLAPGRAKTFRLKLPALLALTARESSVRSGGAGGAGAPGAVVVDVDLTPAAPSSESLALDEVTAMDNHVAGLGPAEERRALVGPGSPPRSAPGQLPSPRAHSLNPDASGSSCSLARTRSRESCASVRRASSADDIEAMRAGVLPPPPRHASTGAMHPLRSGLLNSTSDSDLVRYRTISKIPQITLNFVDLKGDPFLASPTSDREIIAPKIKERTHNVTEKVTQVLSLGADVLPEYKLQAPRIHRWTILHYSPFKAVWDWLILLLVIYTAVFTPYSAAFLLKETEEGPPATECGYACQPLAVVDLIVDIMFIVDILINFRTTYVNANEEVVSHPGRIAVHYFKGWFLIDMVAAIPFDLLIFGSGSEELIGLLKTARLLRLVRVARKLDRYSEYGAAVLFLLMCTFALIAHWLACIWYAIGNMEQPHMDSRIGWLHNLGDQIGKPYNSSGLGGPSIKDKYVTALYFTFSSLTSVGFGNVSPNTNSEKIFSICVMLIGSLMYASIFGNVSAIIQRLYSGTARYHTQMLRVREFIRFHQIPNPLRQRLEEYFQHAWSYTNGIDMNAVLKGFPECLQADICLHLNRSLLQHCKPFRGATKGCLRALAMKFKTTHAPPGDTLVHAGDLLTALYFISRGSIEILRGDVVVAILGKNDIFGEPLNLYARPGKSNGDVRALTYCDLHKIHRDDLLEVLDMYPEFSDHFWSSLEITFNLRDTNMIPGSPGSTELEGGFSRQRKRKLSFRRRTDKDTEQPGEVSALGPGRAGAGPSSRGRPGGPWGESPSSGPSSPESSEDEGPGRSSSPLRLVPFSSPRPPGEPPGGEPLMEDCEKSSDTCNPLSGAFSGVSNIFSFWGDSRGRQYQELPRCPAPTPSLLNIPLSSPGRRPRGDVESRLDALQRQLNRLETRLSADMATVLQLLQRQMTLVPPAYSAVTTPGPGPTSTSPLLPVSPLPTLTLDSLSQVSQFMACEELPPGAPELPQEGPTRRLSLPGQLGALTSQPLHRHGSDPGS
# Chain of CYP2C19 (P33261 whole entry): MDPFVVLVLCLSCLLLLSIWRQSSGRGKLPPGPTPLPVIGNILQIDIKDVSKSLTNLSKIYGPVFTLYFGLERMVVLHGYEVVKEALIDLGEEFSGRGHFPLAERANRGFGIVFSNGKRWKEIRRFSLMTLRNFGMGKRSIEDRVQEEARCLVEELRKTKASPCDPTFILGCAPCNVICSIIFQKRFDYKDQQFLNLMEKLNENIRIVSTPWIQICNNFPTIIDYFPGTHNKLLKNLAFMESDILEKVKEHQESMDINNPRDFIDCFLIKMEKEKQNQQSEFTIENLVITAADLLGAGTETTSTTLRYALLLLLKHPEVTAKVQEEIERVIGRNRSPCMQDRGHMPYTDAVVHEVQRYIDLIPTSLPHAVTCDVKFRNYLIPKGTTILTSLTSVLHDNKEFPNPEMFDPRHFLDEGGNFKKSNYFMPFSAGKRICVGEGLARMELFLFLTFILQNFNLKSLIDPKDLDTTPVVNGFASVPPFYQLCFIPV
compound,measurement,setting,value
COc1cc(F)cc(C(=O)c2cc(C)c(Oc3ccc4c(O)c(C(=O)NCC(=O)O)nc(OC)c4c3)c(C)c2)c1,EC50,[1],21 nM
same,inhibition,HepG2,Active
same,Cmax,[2],8450 ng/mL
same,CLint scaled at 1 µM,[3],< 45.5 mL/min/kg
same,inhibition at 10 µM,hERG,9.13%
same,Activity,HFL1,Non-Toxic
same,Activity,A549,Non-Toxic
same,"inhibition at 0.75 h, 10 µM",CYP2C19,12%
same,AUC(0-inf),[4],6830 ng·h/mL
same,half-life at 1 µM,[5],> 120 min
same,"inhibition at 10 min, 10 µM",CYP2C9,18.4%
